Read-outs that look alike come from different tables or passages of the source.

For one data set, the target named is native PKCβI (Mus musculus, UniProt P68404). Put plainly: cell-based. It counts as binding.
The next data set addresses native PKCγ (Mus musculus, UniProt P63318). Put plainly: cell-based. It counts as binding.
The next data set deals with native PKCδ (Mus musculus, UniProt P28867). Put plainly: cell-based. Format: binding.
For the next data set, the target named is T1, native PKCε (Mus musculus, UniProt P16054).
T1 sequence (P16054 1-737): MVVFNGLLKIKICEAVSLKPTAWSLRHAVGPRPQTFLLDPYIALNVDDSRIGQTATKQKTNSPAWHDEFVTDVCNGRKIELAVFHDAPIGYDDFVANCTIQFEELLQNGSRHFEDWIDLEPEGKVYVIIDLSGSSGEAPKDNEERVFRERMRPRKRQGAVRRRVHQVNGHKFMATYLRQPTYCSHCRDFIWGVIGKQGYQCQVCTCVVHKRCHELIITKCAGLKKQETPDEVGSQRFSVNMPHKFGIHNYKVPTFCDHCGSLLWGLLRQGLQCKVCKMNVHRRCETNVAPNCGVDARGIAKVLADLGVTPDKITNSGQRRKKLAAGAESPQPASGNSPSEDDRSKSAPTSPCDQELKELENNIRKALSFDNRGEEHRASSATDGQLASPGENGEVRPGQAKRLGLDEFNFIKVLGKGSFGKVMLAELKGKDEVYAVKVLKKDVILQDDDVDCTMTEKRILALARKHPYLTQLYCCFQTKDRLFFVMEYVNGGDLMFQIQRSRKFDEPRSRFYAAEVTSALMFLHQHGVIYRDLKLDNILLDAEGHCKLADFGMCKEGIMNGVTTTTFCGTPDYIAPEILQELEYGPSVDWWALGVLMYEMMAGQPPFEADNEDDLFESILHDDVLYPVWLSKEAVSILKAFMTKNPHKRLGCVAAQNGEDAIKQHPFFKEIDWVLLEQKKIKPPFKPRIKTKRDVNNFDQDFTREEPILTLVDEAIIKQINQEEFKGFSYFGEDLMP
Put plainly: cell-based. It counts as binding.

Another data set has as its target T2, native PKCζ (Mus musculus, UniProt Q02956).
T2 sequence (Q02956 1-592): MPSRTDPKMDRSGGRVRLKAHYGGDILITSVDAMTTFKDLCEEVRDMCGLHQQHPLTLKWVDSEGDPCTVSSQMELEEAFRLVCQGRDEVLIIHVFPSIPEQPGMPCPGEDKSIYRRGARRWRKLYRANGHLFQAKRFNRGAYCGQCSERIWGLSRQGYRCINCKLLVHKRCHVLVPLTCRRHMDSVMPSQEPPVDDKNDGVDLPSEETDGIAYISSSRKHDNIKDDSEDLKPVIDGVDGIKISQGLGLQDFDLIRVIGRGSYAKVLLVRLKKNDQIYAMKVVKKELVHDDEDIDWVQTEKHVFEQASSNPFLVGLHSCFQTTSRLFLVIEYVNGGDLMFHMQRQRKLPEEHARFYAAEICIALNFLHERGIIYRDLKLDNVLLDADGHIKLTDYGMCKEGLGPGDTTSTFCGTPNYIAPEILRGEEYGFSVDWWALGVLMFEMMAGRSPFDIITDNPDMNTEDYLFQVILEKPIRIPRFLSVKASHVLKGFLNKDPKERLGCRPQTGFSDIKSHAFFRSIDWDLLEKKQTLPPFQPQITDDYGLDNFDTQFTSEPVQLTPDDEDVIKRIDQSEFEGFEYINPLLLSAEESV
Format: binding.

For the next data set, the target named is native PKCη (Mus musculus, UniProt P23298). Put plainly: cell-based. It counts as binding.
The next data set addresses native PKCθ (Mus musculus, UniProt Q02111). Put plainly: cell-based. It counts as binding.
A further data set concerns HEK293T cells. Put plainly: Cytotoxicity towards HEK293T cells. It counts as cell-based. The following applies: treatment for 48 h at concentrations of ≤ 10 μM.
In another data set the test system is Jurkat E6-1 cells. Put plainly: Cytotoxicity towards Jurkat lymphocytes. It counts as cell-based.
The next data set deals with PKCδ. The following applies: read-out: Previously reported biochemical Ki values, PDBu; cited from earlier work.
The target of the next data set is PKCγ. Particulars: read-out: Previously reported biochemical Ki values, Bryostatin 1, [3H]PDBu at 4 °C; cited from earlier work.
For the next data set, the target named is PKCζ. Particulars: [3H]PDBu at 4 °C; cited from earlier work.
The target in a further data set is PKCη. Particulars: read-out: Previously reported biochemical Ki values, Bryostatin 1, [3H]PDBu at 4 °C; cited from earlier work.
For a further data set, the target named is PKCθ. Particulars: read-out: Previously reported biochemical Ki values, Bryostatin 1, [3H]PDBu at 4 °C; cited from earlier work.
The target of the next data set is native PKCα (Mus musculus, UniProt P20444). Put plainly: cell-based.
The target of another data set is PKCα. The following applies: read-out: Previously reported biochemical Ki values, Bryostatin 1, [3H]PDBu at 4 °C; cited from earlier work.
A further data set addresses PKCβI. The following applies: read-out: Previously reported biochemical Ki values, Bryostatin 1, [3H]PDBu at 4 °C; cited from earlier work.
The target of another data set is PKCε. The following applies: read-out: Previously reported biochemical Ki values, Bryostatin 1, [3H]PDBu at 4 °C; cited from earlier work.
Where [1] appears, read: read-out: Cellular Ki values for native PKCs.

Chain of native PKCδ (P28867 whole entry): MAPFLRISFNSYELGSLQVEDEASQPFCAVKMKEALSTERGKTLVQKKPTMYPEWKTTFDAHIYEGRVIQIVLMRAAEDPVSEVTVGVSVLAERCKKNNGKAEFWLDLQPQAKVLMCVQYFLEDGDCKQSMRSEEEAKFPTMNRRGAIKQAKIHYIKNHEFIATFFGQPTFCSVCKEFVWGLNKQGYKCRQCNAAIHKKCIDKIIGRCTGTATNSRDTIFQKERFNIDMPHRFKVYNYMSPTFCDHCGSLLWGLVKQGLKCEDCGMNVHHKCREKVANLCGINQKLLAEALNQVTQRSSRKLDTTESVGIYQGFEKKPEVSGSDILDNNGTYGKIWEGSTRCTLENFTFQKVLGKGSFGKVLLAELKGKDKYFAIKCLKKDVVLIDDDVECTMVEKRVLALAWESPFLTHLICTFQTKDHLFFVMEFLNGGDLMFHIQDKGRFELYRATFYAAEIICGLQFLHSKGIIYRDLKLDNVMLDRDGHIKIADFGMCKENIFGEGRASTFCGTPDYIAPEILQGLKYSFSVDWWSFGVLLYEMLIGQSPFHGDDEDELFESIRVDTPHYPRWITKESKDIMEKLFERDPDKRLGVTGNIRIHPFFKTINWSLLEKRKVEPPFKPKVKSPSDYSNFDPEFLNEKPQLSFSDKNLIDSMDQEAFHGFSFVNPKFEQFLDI
Chain of native PKCβI (P68404 whole entry): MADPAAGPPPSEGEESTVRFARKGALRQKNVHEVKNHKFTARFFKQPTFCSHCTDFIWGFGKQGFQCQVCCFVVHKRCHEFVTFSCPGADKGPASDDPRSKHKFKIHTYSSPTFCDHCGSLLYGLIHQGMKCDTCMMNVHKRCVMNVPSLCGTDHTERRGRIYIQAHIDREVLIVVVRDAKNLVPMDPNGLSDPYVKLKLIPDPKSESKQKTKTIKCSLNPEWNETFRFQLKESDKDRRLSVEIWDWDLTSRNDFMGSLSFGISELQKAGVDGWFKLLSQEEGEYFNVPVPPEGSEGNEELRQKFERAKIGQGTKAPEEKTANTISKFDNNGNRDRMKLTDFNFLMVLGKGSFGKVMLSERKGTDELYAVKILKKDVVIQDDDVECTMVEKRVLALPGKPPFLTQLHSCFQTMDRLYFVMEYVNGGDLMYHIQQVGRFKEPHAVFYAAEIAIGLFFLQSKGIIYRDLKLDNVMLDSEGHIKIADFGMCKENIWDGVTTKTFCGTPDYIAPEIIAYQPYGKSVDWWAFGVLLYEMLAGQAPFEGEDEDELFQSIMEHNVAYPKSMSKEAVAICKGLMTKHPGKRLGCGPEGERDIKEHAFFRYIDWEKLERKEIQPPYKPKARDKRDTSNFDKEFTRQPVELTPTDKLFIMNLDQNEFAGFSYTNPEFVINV
Chain of native PKCη (P23298 whole entry): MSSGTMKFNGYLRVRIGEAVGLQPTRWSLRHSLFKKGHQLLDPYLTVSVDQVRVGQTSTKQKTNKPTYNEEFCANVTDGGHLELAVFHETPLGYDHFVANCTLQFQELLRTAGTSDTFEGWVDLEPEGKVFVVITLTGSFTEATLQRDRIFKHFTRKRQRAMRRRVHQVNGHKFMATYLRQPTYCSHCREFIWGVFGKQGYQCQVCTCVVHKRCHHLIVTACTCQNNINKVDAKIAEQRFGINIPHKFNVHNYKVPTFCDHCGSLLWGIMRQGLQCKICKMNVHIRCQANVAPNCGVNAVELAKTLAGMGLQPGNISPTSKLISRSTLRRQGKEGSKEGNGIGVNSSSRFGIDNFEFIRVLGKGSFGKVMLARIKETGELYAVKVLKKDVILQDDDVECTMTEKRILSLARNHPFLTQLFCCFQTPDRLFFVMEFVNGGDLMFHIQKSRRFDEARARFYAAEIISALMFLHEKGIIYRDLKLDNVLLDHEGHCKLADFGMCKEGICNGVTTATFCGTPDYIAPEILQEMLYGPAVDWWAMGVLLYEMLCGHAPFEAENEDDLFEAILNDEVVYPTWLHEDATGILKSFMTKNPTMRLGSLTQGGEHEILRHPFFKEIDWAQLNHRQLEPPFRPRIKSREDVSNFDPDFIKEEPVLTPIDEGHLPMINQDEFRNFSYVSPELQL
Chain of native PKCθ (Q02111 whole entry): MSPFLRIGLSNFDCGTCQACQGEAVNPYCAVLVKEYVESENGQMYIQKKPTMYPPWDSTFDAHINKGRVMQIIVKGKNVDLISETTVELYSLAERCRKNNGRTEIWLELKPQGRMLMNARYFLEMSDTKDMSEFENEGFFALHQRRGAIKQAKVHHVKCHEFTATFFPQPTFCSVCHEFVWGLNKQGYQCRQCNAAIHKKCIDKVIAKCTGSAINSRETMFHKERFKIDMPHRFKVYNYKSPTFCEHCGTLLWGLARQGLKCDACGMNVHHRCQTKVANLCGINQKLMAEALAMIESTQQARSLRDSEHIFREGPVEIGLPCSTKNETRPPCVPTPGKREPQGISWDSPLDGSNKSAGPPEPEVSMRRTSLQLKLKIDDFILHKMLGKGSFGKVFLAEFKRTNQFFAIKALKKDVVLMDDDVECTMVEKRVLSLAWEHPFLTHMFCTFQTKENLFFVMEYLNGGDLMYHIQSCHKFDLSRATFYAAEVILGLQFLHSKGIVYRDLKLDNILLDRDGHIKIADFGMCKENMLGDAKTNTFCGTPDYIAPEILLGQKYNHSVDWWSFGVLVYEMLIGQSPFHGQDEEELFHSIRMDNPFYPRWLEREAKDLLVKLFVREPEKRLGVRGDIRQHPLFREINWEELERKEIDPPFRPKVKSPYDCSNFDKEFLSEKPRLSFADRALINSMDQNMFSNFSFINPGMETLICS

In the case of `CCCC(=O)O[C@@H]1[C@@H](C)[C@@]2(O)[C@@H](C=C(CO)C[C@]3(O)C(=O)C(C)=C[C@@H]23)[C@@H]2C(C)(C)[C@]12OC(=O)CCC` [PDBu, phorbol 12, 13-dibutyrate], the “fluctuation in measured cellular IC50 and Ki values” at native PKCβI is given as “less than 3 fold”. Moreover, the Ki (as a rule, a dissociation constant, usually derived from enzyme kinetics or from competition with a known ligand) at native PKCβI (setting [1]) amounted to 15 nM; at native PKCγ (setting [1]), 18 nM; on native PKCδ (setting [1]), 45 nM; at native PKCε (setting [1]), 43 nM; on native PKCη (setting [1]), 27 nM; on native PKCθ (setting [1]) it was 49 nM. In addition, the Ki on PKCδ was […]. Also, the “lower affinity for PKCδ in cells than in biochemical assays” value on native PKCδ amounted to 10 fold. The “Cellular Ki values for native PKCs” value on native PKCζ was “No binding”. Further, the “cytotoxicity towards HEK293T cells” value in the data set with HEK293T cells was “non-toxic”. Further, the IC50 (commonly the midpoint of a concentration-inhibition curve) in the data set on Jurkat E6-1 cells (read-out: cytotoxic potency towards Jurkat lymphocytes, IC50) was found to be 2 nM.
In the case of `CN(C)CCCn1cc(C2=C(c3c[nH]c4ccccc34)C(=O)NC2=O)c2ccccc21` [BIM1, bisindolylmaleimide I], the “effect of BIM1 on cytotoxicity of probes 1–3 towards Jurkat lymphocytes” value in the data set on Jurkat E6-1 cells is “reduced or eliminated”. Also, the “effect of BIM1 on toxicity of PDBu towards Jurkat lymphocytes” value in the data set on Jurkat E6-1 cells (BIM1 2 μM) was “completely blocked”.
As for `CCC/C=C/C=C/C(=O)O[C@H]1/C(=C/C(=O)OC)C[C@H]2C[C@H]([C@@H](C)O)OC(=O)C[C@H](O)C[C@@H]3C[C@H](OC(C)=O)C(C)(C)[C@](O)(C[C@@H]4C/C(=C/C(=O)OC)C[C@H](/C=C/C(C)(C)[C@]1(O)O2)O4)O3` [bryostatin 1], the Ki on native PKCβI is 2 nM; at native PKCγ, 2 nM; on native PKCδ, 17 nM; at native PKCε it was 11 nM; at native PKCη, 5 nM; at native PKCθ, […]. Further, the Ki was […] at PKCγ; […] on PKCη; […] at PKCθ; 4 nM on native PKCα; […] on PKCα; […] at PKCβI. In addition, the Ki at PKCε is […]. Besides, on native PKCδ (cellular Ki versus previously reported biochemical Ki), the “lower affinity for PKCδ in cells than in biochemical assays” value came out at […]. Besides, the “Cellular Ki values for native PKCs” value on native PKCζ (PKCζ, competition with probe 1, BIM1 2 μM, 2 h 37 °C) is recorded as “No binding”. For the same molecule, on PKCζ, the “Previously reported biochemical Ki values, Bryostatin 1” value is “No binding”.

The record behind these values is PMC10910633 (Journal of the American Chemical Society, 2023).
